Results as given in the NIST ThermoML archive (doi:10.1021/acs.jced.6b00786).

Test: xn = mol fraction of the nth substance listed
Details: 101 kPa, Liquid, Vibrating tube method

NC=O [formamide] + O
mass density [kg/m3]
Details | 288.15 K | 298.15 K | 308.15 K | 323.15 K | 333.15 K
x1 = 0.00244 | – | 997.942 | 994.873 | 988.848 | 983.879
x1 = 0.00515 | – | 998.905 | 995.763 | 989.627 | 984.704
x1 = 0.0086 | – | 1000.14 | 996.897 | 990.671 | 985.696
x1 = 0.02032 | – | 1004.2 | 1000.68 | 994.128 | 988.955
x1 = 0.03478 | – | 1009 | 1005.15 | 998.15 | 992.755
x1 = 0.04976 | – | 1013.73 | 1009.5 | 1002.11 | 996.5
x1 = 0.06674 | – | 1018.77 | 1014.31 | 1006.45 | 1000.6
x1 = 0.08229 | – | 1023.18 | 1018.42 | 1010.31 | 1004.2
x1 = 0.1171 | – | 1032.35 | 1027.15 | 1018.36 | 1011.84
x1 = 0.1745 | – | 1045.52 | 1039.6 | 1030.08 | 1023.19
x1 = 0.2169 | – | 1053.94 | 1047.65 | 1037.62 | 1030.56
x1 = 0.2557 | – | 1060.92 | 1054.32 | 1043.94 | 1036.75
x1 = 0.3026 | – | 1068.56 | 1061.67 | 1050.89 | 1043.42
x1 = 0.351 | – | 1075.56 | 1068.41 | 1057.31 | 1049.67
x1 = 0.4027 | – | 1082.34 | 1074.96 | 1063.57 | 1055.76
x1 = 0.4487 | – | 1087.78 | 1080.22 | 1068.62 | 1060.68
x1 = 0.4886 | – | 1092.05 | 1084.37 | 1072.62 | 1064.58
x1 = 0.5601 | – | 1099.14 | 1091.28 | 1079.26 | 1071.15
x1 = 0.5916 | – | 1102.04 | 1094.1 | 1081.99 | 1073.78
x1 = 0.6674 | – | 1108.34 | 1100.24 | 1087.95 | 1079.63
x1 = 0.7066 | – | 1111.34 | 1103.2 | 1090.81 | 1082.46
x1 = 0.7495 | 1122.53 | 1114.37 | 1106.15 | 1093.69 | 1085.28
x1 = 0.7931 | 1125.6 | 1117.37 | 1109.09 | 1096.56 | 1088.11
x1 = 0.8601 | 1129.96 | 1121.65 | 1113.29 | 1100.66 | 1092.16
x1 = 0.8996 | 1132.4 | 1124.05 | 1115.65 | 1102.97 | 1094.46
x1 = 0.948 | 1135.23 | 1126.82 | 1118.38 | 1105.65 | 1097.1
x1 = 0.9753 | 1136.78 | 1128.35 | 1119.88 | 1107.13 | 1098.56
x1 = 0.9847 | 1137.31 | 1128.87 | 1120.39 | 1107.62 | 1099.05
x1 = 0.9897 | 1137.59 | 1129.15 | 1120.66 | 1107.9 | 1099.33
x1 = 0.9959 | 1137.94 | 1129.5 | 1121.01 | 1108.24 | 1099.68
x1 = 1 | 1138.17 | 1129.73 | 1121.22 | 1108.46 | 1099.88
